Patent US9597407B2, “Targeted antimicrobial moieties” (C3 Jian, Inc., priority 2009, dated 2017)
Entries after “also recorded” stand apart in the source; their conditions may differ.

What follows are substances tested on bacteria (assay: Binding of targeting peptides to microorganisms (Table 3)). Conditions: microorganism bound by the targeting peptide; binding in aqueous buffers chosen by peptide solubility, preferably 1x PBS.

Row | Substance | Target(s)
1 | PF-291 (DVDGAIESEL; Peptide with targeting and/or antimicrobial activity) | S. mutans; also recorded: E. coli
2 | PF-214 (GHLRVCWVFSASLLTPFRSATLI; Peptide with targeting and/or antimicrobial activity) | S. mutans; also recorded: S. epidermidis; also recorded: M. luteus; also recorded: E. coli; also recorded: P. aeruginosa; also recorded: A. baumannii
3 | PF-325 (LTIDEKLRNHR; Peptide with targeting and/or antimicrobial activity) | S. mutans; also recorded: E. coli
4 | PF-131 (RRAAARTKGNRR; Peptide with targeting and/or antimicrobial activity) | S. epidermidis and E. coli and MRSA and C. jeikeium
5 | PF-154 (GIKKSKHPSTDDYVVKTTIDSL; Peptide with targeting and/or antimicrobial activity) | S. mutans
6 | PF-268 (EVLLSDLRPDIFSET; Peptide with targeting and/or antimicrobial activity) | S. mutans
7 | PF-152 (VGYFIWKDSHSRKG; Peptide with targeting and/or antimicrobial activity) | S. epidermidis and C. albicans and MRSA and E. faecalis and C. jeikeium
8 | PF-101 (DPVPERQEQACACHRTAKPGK; Peptide with targeting and/or antimicrobial activity) | S. mutans
9 | PF-169 (APGSAADSPRSRADD; Peptide with targeting and/or antimicrobial activity) | S. epidermidis; also recorded: E. coli; also recorded: C. albicans; also recorded: E. faecalis; also recorded: C. jeikeium
10 | PF-150 (EIQAKGTG; Peptide with targeting and/or antimicrobial activity) | S. epidermidis and MRSA
11 | PF-228 (NQLGSQAFAQL; Peptide with targeting and/or antimicrobial activity) | S. mutans
12 | PF-239 (PKHNVVTGVSVDLDYKP; Peptide with targeting and/or antimicrobial activity) | S. mutans; also recorded: E. coli
13 | PF-158 (VRLESRPADLPE; Peptide with targeting and/or antimicrobial activity) | S. epidermidis
14 | PF-308 (QQYLILDRM; Peptide with targeting and/or antimicrobial activity) | C. difficile
15 | PF-165 (GPVSVVASLRRGTTVQRHSQNNHNKGKP; Peptide with targeting and/or antimicrobial activity) | MRSA and C. jejuni

Same assay, conditions: microorganism the targeting peptide binds; binding in aqueous buffers that varied with peptide solubility, preferably 1x PBS

Row | Substance | Target(s)
16 | 1T-260 (NILYFIHDENQWEPQKAEIFRGSIKHCAWLSS; Peptide with targeting and/or antimicrobial activity) [Peptide 1T-260] | A. naeslundii; also recorded: P. gingivalis; also recorded: S. epidermidis; also recorded: S. gordonii; also recorded: S. mitis; also recorded: S. mutans; also recorded: S. oralis; also recorded: S. sanguinis
17 | PF-014 (HPTDNKHN; Peptide with targeting and/or antimicrobial activity) | E. coli; also recorded: C. jeikeium
18 | 1T-258 (TINIDDKVLDYLKKINSKAITIDLIGCAS; Peptide with targeting and/or antimicrobial activity) [Peptide 1T-258] | A. naeslundii; also recorded: F. nucleatum; also recorded: P. gingivalis; also recorded: T. denticola; also recorded: S. mitis; also recorded: S. mutans; also recorded: S. oralis
19 | PF-044 (KLKKYIHKPD; Peptide with targeting and/or antimicrobial activity) | S. epidermidis and M. luteus and MRSA and C. jeikeium

Same assay, conditions: peptide binding in aqueous buffers that varied depending on peptide solubility; preferably 1x PBS

Row | Substance | Target(s) (microorganism bound by the targeting peptide) | Target(s) (microorganisms bound by the targeting peptide)
20 | PF-766 (DAYYAQLRKQKEIEEGA; Peptide with targeting and/or antimicrobial activity) | S. epidermidis and M. luteus and C. albicans and MRSA and E. faecalis and C. jeikeium | –
21 | PF-506 (SGRGFALIVVLFILLIIVGAACIR; Peptide with targeting and/or antimicrobial activity) | – | S. mutans; also recorded: E. coli
22 | PF-798 (ALHSKGIKVMADWVPDQMYA; Peptide with targeting and/or antimicrobial activity) | S. mutans | –
23 | PF-C008 (AQPRRTWLVNFGEVPSPGLTNDGMPDH; Peptide with targeting and/or antimicrobial activity) | A. naeslundii | –
24 | PF-784 (MAMTTVDNIVGLVIAVALMAFLFAALLFPEKF; Peptide with targeting and/or antimicrobial activity) | Mycobacteria spp. | –
25 | PF-712 (QIYRHVHKVQAKSANLRLY; Peptide with targeting and/or antimicrobial activity) | S. mutans; also recorded: E. coli | –
26 | PF-735 (YDPLFPNDKN; Peptide with targeting and/or antimicrobial activity) | S. mutans; also recorded: E. coli | –
27 | PF-678 (RDRRWTRRDMYDWLESARV; Peptide with targeting and/or antimicrobial activity) | Mycobacteria spp | –
28 | PF-504 (ILSVELSTKTSASGS; Peptide with targeting and/or antimicrobial activity) | – | S. mutans; also recorded: E. coli
29 | PF-494 (FTEPLRPLQAKGQIISIKPSTSSS; Peptide with targeting and/or antimicrobial activity) | – | S. mutans
30 | PF-C080 (INIPGLF; Peptide with targeting and/or antimicrobial activity) | A. naeslundii; also recorded: F. nucleatum; also recorded: S. mutans | –
31 | PF-720 (SLDMGK; Peptide with targeting and/or antimicrobial activity) | S. mutans | –

Same assay, conditions: peptide binding in aqueous buffers varied by peptide solubility; preferably 1x PBS

Row | Substance | Target(s) (microorganism bound by the targeting peptide)
32 | 1T-36 (VYRHLRFIDGKLVEIRLERK; Peptide with targeting and/or antimicrobial activity) [Peptide 1T-36] | S. aureus; also recorded: S. epidermidis; also recorded: C. jeikeium; also recorded: C. xerosis; also recorded: C. striatum; also recorded: P. aeruginosa
33 | 1T-74 (DIDWGRKISCAAGVAYGAIDGCATTV; Peptide with targeting and/or antimicrobial activity) [Peptide 1T-74] | S. pneumoniae
34 | 1T-94 (DQVAHSGDMLVQARRRDS; Peptide with targeting and/or antimicrobial activity) [Peptide 1T-94] | S. mitis; also recorded: S. mutans; also recorded: S. oralis
35 | 1T-105 (GEGLPPPVLHLPPPRMSGR; Peptide with targeting and/or antimicrobial activity) [Peptide 1T-105] | S. epidermidis; also recorded: S. gordonii; also recorded: S. mitis; also recorded: S. mutans; also recorded: S. oralis
36 | 1T-80 (GGNLGPGFGVIIP; Peptide with targeting and/or antimicrobial activity) [Peptide 1T-80] | S. pneumoniae
37 | 1T-177 (GTNVPTQILGYSREERFDYEPAPEQR; Peptide with targeting and/or antimicrobial activity) [Peptide 1T-177] | P. gingivalis; also recorded: S. gordonii; also recorded: S. mitis; also recorded: S. mutans; also recorded: S. oralis; also recorded: S. salivarious; also recorded: S. sanguinis
38 | 1T-154 (YFSFLEIVGMARR; Peptide with targeting and/or antimicrobial activity) [Peptide 1T-154] | P. gingivalis
39 | 1T-14 (ALAGLAGLISGK; Peptide with targeting and/or antimicrobial activity) [Peptide 1T-14] | S. mutans; also recorded: S. aureus; also recorded: S. epidermidis; also recorded: C. xerosis
40 | 1T-91 (TSVRPGAAGAAVPAGAAGAAGAGWRWP; Peptide with targeting and/or antimicrobial activity) [Peptide 1T-91] | S. mitis; also recorded: S. mutans; also recorded: S. oralis; also recorded: S. sanguinis
41 | 1T-139 (AVAGAAVGALLGNDARSTAVGAAIGGALGAGAGELTKNK; Peptide with targeting and/or antimicrobial activity) [Peptide 1T-139] | A. naeslundii; also recorded: S. gordonii; also recorded: S. mitis; also recorded: S. mutans; also recorded: S. oralis
42 | 1T-145 (VEAGKRNISLENIEKISKGLGISISELFKYIEEGEDKIG; Peptide with targeting and/or antimicrobial activity) [Peptide 1T-145] | S. mitis; also recorded: S. mutans; also recorded: S. oralis
43 | 1T-10 (SPAGLPGDGDEA; Peptide with targeting and/or antimicrobial activity) [Peptide 1T-10] | M. xanthus
44 | 1T-81 (AIATGLDIVDGKFDGYLWA; Peptide with targeting and/or antimicrobial activity) [Peptide 1T-81] | S. pneumoniae
45 | 1T-86 (HRKNPVLGVGRRHRAHNVA; Peptide with targeting and/or antimicrobial activity) [Peptide 1T-86] | S. mitis; also recorded: S. oralis; also recorded: S. salivarious
46 | 1T-18 (YSKTLHFAD; Peptide with targeting and/or antimicrobial activity) [Peptide 1T-18] | S. aureus; also recorded: S. epidermidis; also recorded: C. striatum; also recorded: P. aeruginosa
47 | 1T-92 (GQDEGQRRAGVGEGQGVDG; Peptide with targeting and/or antimicrobial activity) [Peptide 1T-92] | S. mitis; also recorded: S. mutans
